In this assay the test system is mammary tumors of MMTV/v-Ha-ras/p21WAF1 (−/−) transgenic mice. The assay can be described thus: Antitumor efficacy of FTI-2148 in MMTV/v-Ha-ras/p21WAF1 (−/−) transgenic mice. The note with it: 50 mg/Kg/day by subcutaneous osmotic mini-pump. The format is in vivo, mouse. The method, then: The MMTV/v-Ha-Ras/p21waf(−/−) transgenic mice are generated as described herein. When the three mammary tumors reach 4500 mm^3, 2000 mm^3 and 900 mm^3 (see FIG. 1), the mice are implanted subcutaneously with an osmotic mini-pump that delivers 50 mg/Kg/day of the farnesyltransferase inhibitor FTI-2148 that was designed to block oncogenic H-Ras malignant transformation. […] Thus, within 6 days of drug treatment one skilled in the art can determine whether a drug has antitumor activity.
Tumor Development Monitoring and Sample Collection. The female offspring are monitored weekly for tumors by observation and palpation. Tumor diameters are measured in three dimensions using calipers, and tumor volume is calculated as length x width x height. Samples of tumor and normal tissue are collected in 10% neutral buffered formalin for histopathologic analysis. All surgical and experimental procedures performed on the mice are in accordance the NIH guidelines outlined in the “Guide for Care and Use of Laboratory Animals” (NIH publication 85-23). Animals are autopsied immediately after sacrifice, and external as well as internal organs are grossly examined. Representative tissue samples are obtained from salivary glands, mammary glands, lungs, liver, kidneys, spleen, and Harderian (lacrimal) glands. For general microscopy, tissues are embedded in paraffin, and 3 μm-thick sections are cut and stained with hematoxylin and eosin. Tissues are also processed using either an avidin-biotin complex method or a labeled streptavidin-biotin method after antigen retrieval. […] Negative and positive controls include the omission of the primary antibody and normal or tumor tissues with known high marker expression. p21^WAF1/CIP1 expression is analyzed by immunohistochemistry with an anti-p21 antibody (sc-397-G, Santa Cruz Biotechnology). […]

We go through one molecule from patent publication US6531645B1, “RAS/P21 transgenic mouse” (University of South Florida, priority 2000, dated 2003).

Turning to `CSCC[C@H](NC(=O)c1ccc(CNCc2cnc[nH]2)cc1-c1ccccc1C)C(=O)O` [FTI-2148], for the setting “day 15”, the “fate by day 15 of one of the three mammary tumors” value is reported as “one tumor disappears”; the “tumor volume by day 15 of the two tumors that started out at 4500 mm^3 and 2000 mm^3” value is on record as “less than 500 mm^3”. Moreover, the “time of treatment within which the tumors start to regress” value (three mammary tumors of 4500, 2000 and 900 mm^3 at start) is at most 6 days.
